For this assay, the system named is CEM cells HIV-1 protection, formazan growth assay. Nature of the assay: NCI AIDS Antiviral Assay. To be noted: for IC50: measured here: growth of uninfected CEM cells. On the procedure:
The ability of compounds to protect human CEM cells from HIV-1 infection is measured as a screen for new compounds capable of inhibiting the HIV virus. Five concentrations of drug were tested on uninfected and infected cells and cell growth was measured using a soluble formazan assay. […] Compounds that provided at least 50% protection were retested. Compounds that provided at least 50% protection on retest were listed as moderately active. Compounds that reproducibly provided 100% protection were listed as confirmed active. […] Note that the inability to provide protection could be due to toxicity.

The source of these data is PubChem BioAssay AID179 (DTP/NCI, 2004).

“And” between values parts separate entries of the source, which are not always exact repeats. Identical values can stand only once. The source made the active and inactive calls.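 How the source made its calls: active means compounds giving half or more protection of infected cells from virus-caused growth loss, again on retest; inactive means the rest.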

`CSc1nnc2n(C)c3c(=O)n(C)c(=O)n(C)c3n12`: the EC50 is above 200 µM and the IC50 was above 200 µM.

On to `CCN(CC)CCC(=O)c1ccc(OC)cc1`, for which the EC50 is above 912 µM and the IC50 was 19.5 µM.

For `COC(=O)c1coc(CC/C(C)=C/c2ccccc2)n1`, the EC50 is above 200 µM and the IC50 worked out at 126 µM.

Take `COc1cc(C2(C)SCCCS2)c(I)c(OC)c1OC`: the EC50 was above 234 µM and the IC50 was found to be 6.17 µM.

Turning to `CCN(CC)CCCOP(=O)(OCCCN(CC)CC)OCCCN(CC)CC`, the EC50 was 20 µM and the IC50 is above 200 µM.

In the case of `CCOc1ccc(/C(O)=C/c2nc3ccccc3nc2/C=C(\O)c2ccc(OCC)cc2)cc1`, the EC50 was above 100 µM and the IC50 was above 100 µM.

As to `CN1C(=O)/C(=C2\SC(=O)N(Cc3nc4ccccc4[nH]3)C2=O)c2cc(Br)ccc21`, the EC50 is above 200 µM and the IC50 worked out at 12.9 µM.

Consider `CCOP(=O)(OCC)C(C(=O)OC)C(=O)C(=O)Nc1cccc(O)c1` (stereo not given), for which the EC50 was above 676 µM and the IC50 is above 676 µM.

On to `C=CCN(CC=C)Cn1c(=S)sc2ccccc21`, for which the EC50 was above 200 µM and the IC50 was determined as 141 µM.

Turning to `Cc1cc(CC(O)(C(F)(F)F)C(F)(F)F)cc(CC(O)(C(F)(F)F)C(F)(F)F)n1`, the outcome was inactive.

As for `Cc1ccc2sc3cc(=O)cc(C)c-3nc2c1`, the EC50 is above 10.7 µM and the IC50 was above 10.7 µM.

For the compound `COC1(OC)CC2C(=O)CCCC21OC(C)=O` (stereo not given), the EC50 was above 1020 µM and the IC50 turned out to be 22.4 µM.

Consider `CCN1OC(C)(C)C2CCC(C)CC21` (stereo not given), for which the EC50 was above 1260 µM and the IC50 was above 1260 µM.

For `O=C(NC1CCC(=O)N1C(=O)OCc1ccccc1)OCc1ccccc1` (stereo not given), the EC50 was above 200 µM and the IC50 was above 200 µM.

As to `CC(O)C1=CCC2c3[nH]c4ccccc4c3CCN2C1` (stereo not given), the EC50 was above 23.4 µM and the IC50 was above 23.4 µM.

Turning to `CCOC(=O)C(C)(C)Oc1ccc2c(=O)cc(-c3ccc(Cl)cc3)oc2c1`, the EC50 was above 18.6 µM and the IC50 was above 18.6 µM.

With `N#Cc1c(N)nc(Nc2cccc3ccccc23)c(C#N)c1C#N`, the result was inactive.

With `Brc1ccc2c(-c3nc(-c4c[nH]c5ccccc45)cs3)c[nH]c2c1`, the EC50 is above 100 µM and the half-maximal inhibitory concentration (IC50) stood at 6.46 µM.

Take `O=CNC(CSSCC(NC=O)C(=O)O)C(=O)O` (stereo not given): the EC50 was above 200 µM and the IC50 is above 200 µM.

Consider `O=C(CCN1CCN(c2ccccc2)CC1)N1CCc2c([nH]c3ccccc23)C1c1cccnc1` (stereo not given), for which the EC50 was above 15.5 µM and the IC50 was above 15.5 µM.

With `COc1ccc(-n2[nH]nc(C(N)=O)c2=O)cc1`, the EC50 is above 200 µM and the IC50 was above 200 µM.

In the case of `CC(C)(C)C(=O)C(c1ccc(-c2cscn2)cc1)c1ccc(-c2cscn2)cc1`, the EC50 is above 2.51 µM and the IC50 was above 2.51 µM.

With `CCOC(=O)C(C)S(=O)(=O)O` (stereo not given), the EC50 is above 200 µM and the IC50 was above 200 µM.

Regarding `CCOP(=O)(O)C(Nc1ccc(N=Nc2ccccc2)cc1)c1cccc(C(Nc2ccc(N=Nc3ccccc3)cc2)P(=O)(O)OCC)c1` (stereo not given), the EC50 was above 200 µM and the IC50 stood at 35.5 µM.

Take `COc1cc(O)c2c(=O)c3c(C)cccc3n(C)c2c1`: the EC50 was above 200 µM and the IC50 was found to be 72.4 µM.

For the compound `COc1ccc(-c2onc(-c3ccc([N+](=O)[O-])cc3)c2C2=NCCCN2)cc1`, the EC50 is above 50.1 µM and the IC50 is above 50.1 µM.

Take `O=C(Nc1ccccc1)N1C(c2ccccc2)=N[C@@H](c2ccccc2)[C@@H]1c1ccccc1`: the result was inactive.

In the case of `Nc1nc2ncn(CCO)c2c(=O)[nH]1`, the EC50 was above 93.3 µM and the IC50 is above 93.3 µM.

With `C=CCCCC1(C)CCNC1=S` (stereo not given), the EC50 is above 513 µM and the IC50 was above 513 µM.

As to `NC(=O)C1c2ccccc2C=Cc2ccccc21`, the EC50 was above 200 µM and the IC50 is 155 µM.

`COc1ccc2nc3c([N+](=O)[O-])ccc4c3c(c2c1)NCCN4CCO`: the EC50 is above 200 µM and the IC50 was determined as 0.398 µM.

Take `CN1Cc2cc3c(cc2-c2ccccc21)OCO3`: the EC50 is 269 µM and the half-inhibitory concentration (IC50) stood at 282 µM.

As for `CC(=O)C1(O)C(=[N+]=[N-])C(=O)Nc2ccccc21` (stereo not given), the EC50 is above 200 µM and the concentration for half-maximal inhibition (IC50) was determined as 66.1 µM.

For the compound `O=C1N2Cc3c4ccc5c3CN3C(=O)N6Cc7c(ccc(c7CN1C6(c1ccccc1)C23c1ccccc1)OCCOCCOc1cc(Br)c(Br)cc1OCCOCCO4)OCCOCCOc1cc(Br)c(Br)cc1OCCOCCO5` (stereo not given), the EC50 was above 0.55 µM and the IC50 was above 0.55 µM.

Regarding `CCCCNc1nc2nc[nH]c2c(=O)[nH]1`, the EC50 was above 200 µM and the IC50 is above 200 µM.

As for `CCCCCCCCCCNCCSSCCNC(C)=O`, the EC50 is above 200 µM and the half-maximal inhibitory concentration (IC50) is 5.37 µM.

On to `CC1(C)OP(=O)(O)C=C1Sc1ccc([N+](=O)[O-])cc1[N+](=O)[O-]`, for which the EC50 was above 200 µM and the IC50 is above 200 µM.

Turning to `Cn1c(=O)nc2n(-c3ccc(Cl)c(C(F)(F)F)c3)c3ccccc3nc-2c1=O`, the outcome was inactive.

As for `c1ccc2c(c1)cnc1c3ccccc3nn21`, the EC50 is above 17.4 µM and the IC50 was above 17.4 µM.

Turning to `N[C@H]1c2ccsc2C(=O)[C@H]1O`, the EC50 is above 1 µM and the IC50 is above 1 µM.

Consider `O=c1oc2ccccc2c(O)c1Oc1ccccc1`, for which the EC50 was above 200 µM and the IC50 turned out to be 195 µM.

Consider `O=C1CSC(c2c[nH]c3ccccc23)N1c1cccc([N+](=O)[O-])c1` (stereo not given), for which the EC50 was above 200 µM and the IC50 turned out to be 21.9 µM.

With `O=C(Cc1ccccc1)N/N=C(/c1nc2ccc([N+](=O)[O-])cc2[nH]c1=O)C(O)c1ccccc1Cl` (stereo not given), the EC50 is above 72.4 µM and the IC50 is above 72.4 µM.

With `O=C(CC(=O)N1N=C(N(c2ccccc2)c2ccccc2)CC1c1ccccc1)Nc1ccccc1` (stereo not given), the result was inactive.

As for `CCOC(=O)c1cc(/C=C/C(C)=C/C(=O)OC)oc1-c1ccccc1`, the result was inactive.

Regarding `N#C/C(=C\N1CC(=O)NC1=S)c1nc2ccccc2s1`, the outcome was inactive.

As to `O=C(Nc1cccc(NC(=O)c2cc(=O)c3ccccc3o2)n1)c1cc(=O)c2ccccc2o1`, the EC50 was above 151 µM and the 50% inhibitory concentration (IC50) was above 151 µM.

Take `COC(=O)[C@@H]1c2[nH]c3ccccc3c2C[C@@H]2c3ccccc3NC(=O)[C@@H]21`: the EC50 was above 42.7 µM and the IC50 is above 42.7 µM.

Take `Oc1ccccc1SSc1ccccc1O`: the EC50 was above 200 µM and the IC50 was 63.1 µM.

With `NS(=O)(=O)c1ccc(NC(NC(=O)C(C(F)(F)F)C(F)(F)F)(C(F)(F)F)C(F)(F)F)cc1`, the EC50 was above 200 µM and the IC50 was above 200 µM.

As for `CCC(C)[P+](c1ccccc1)(c1ccccc1)c1ccccc1` (stereo not given), the EC50 was above 200 µM; the 50% inhibitory concentration (IC50) is 2.63 µM and 2.51 µM.

`N=C(N)CCNC(=O)C1CCC(N)=N1` (stereo not given): the EC50 is above 851 µM and the IC50 stood at 17 µM.

As to `COC(=O)C1(C(=O)OC)N=C(C)OC1C(C)C` (stereo not given), the EC50 was above 200 µM and the IC50 was above 200 µM.

With `c1ccc2cc3c(cc2c1)Cn1c-3nc2ccccc21`, the EC50 was above 200 µM and the IC50 was above 200 µM.

Regarding `COc1ccc2nc3cc(Cl)ccc3c(NCCNCCCNC(=O)c3cc(-c4ccccc4)nc4ccccc34)c2c1`, the EC50 was above 20 µM and the IC50 worked out at 1.12 µM.

In the case of `CC1(C)CC2(C)CC1CC2(O)c1ccccc1` (stereo not given), the EC50 was above 219 µM and the IC50 was determined as 61.7 µM.

On to `Cc1cc2c(cc1C)C(=O)C1(C2)Cc2c(C)ccc(C)c2C1=O` (stereo not given), for which the EC50 was above 100 µM and the 50% inhibitory concentration (IC50) was above 100 µM.

For `COC(=O)c1cc(OC)c(OC)c(OC)c1-c1cc2c(cc1C=O)OCO2`, the EC50 was above 132 µM and the IC50 worked out at 120 µM.

For the compound `CC(C)C(O)(C(=O)OCN1C(=O)C2C3C=CC(C2C1=O)C1C2C(=O)N(COC(=O)C(O)(C(C)C)C(C)O)C(=O)C2C31)C(C)O` (stereo not given), the EC50 is above 200 µM and the IC50 was above 200 µM.

As for `CCOC(=O)c1c(-c2cc(OC)c(OC)c(OC)c2)csc1N`, the EC50 was above 200 µM and the IC50 came out at 12 µM.

`O=S(=O)([O-])[O-].O=c1[nH]cnc2[nH]ncc12.O=c1[nH]cnc2[nH]ncc12.[Cu+2]`: the EC50 was above 83.2 µM and the IC50 was 52.5 µM.

As for `COc1cccc2c1C(=O)c1ccc3cc(CCl)cc(O)c3c1C2=O`, the EC50 is above 200 µM and the IC50 came out at 0.468 µM.

In the case of `CC(C)C1OC2(C)OC(=N)C1(C#N)C(C#N)(C#N)C2C` (stereo not given), the EC50 was above 200 µM and the IC50 worked out at 12 µM.

With `COC(=O)C1C23CC(=O)CC1(c1ccc4c(c1)OCO4)C2NC3=O` (stereo not given), the EC50 was above 398 µM and the IC50 is above 398 µM.

For `CC1(C)OC2OC(C(=O)c3ccccc3)C3OC(C)(C)OC3C2O1` (stereo not given), the result was inactive.

For the compound `Cc1ccc(N=NC(C(=O)c2ccccc2)C(=O)c2ccccc2)cc1`, the EC50 is above 39.8 µM and the IC50 was 20 µM.

For the compound `CC(=O)OC(Cc1c(O)c2c(C)cccc2oc1=O)C(C)(C)O` (stereo not given), the EC50 was above 200 µM and the 50% inhibitory concentration (IC50) is 91.2 µM.

Turning to `CN1CC(=O)N2Cc3ccccc3-n3cccc3C2C1` (stereo not given), the result was inactive.

For the compound `COc1ccc(C2c3cc4c(cc3OC3(OC)COC(=O)C23)OCO4)c(OC)c1` (stereo not given), the EC50 was above 100 µM and the half-maximal inhibitory concentration (IC50) was 4.68 µM.

On to `CC/C(=C(\C#N)c1ccc(Cl)cc1)c1ccc(OCCN(CC)CC)cc1`, for which the EC50 is above 100 µM and the IC50 is 2.82 µM.

Regarding `CCOC(=O)C(NC(C)=O)[CH](c1ccc(OC)cc1)[Sn]([c]1ccccc1)([c]1ccccc1)[c]1ccccc1` (stereo not given), the EC50 was above 200 µM and the half-inhibitory concentration (IC50) amounted to 1.07 µM.

For `CN(C)c1ccc(/C=N\NC(=O)c2ccccc2Nc2ccccc2C(=O)N/N=C/c2ccc(N(C)C)cc2)cc1`, the EC50 was 66.1 µM and the IC50 is above 200 µM.

For orientation: EC50 means the concentration at which the effect is half-maximal. Usually IC50 stands for the point on the concentration scale where inhibition reaches its midpoint.
